# According to US20250171438A1 (Agios Pharmaceuticals, Inc., priority 2022, published 2025):
# Target: T1, human PAH with the R408W mutation (Homo sapiens, UniProt P00439, R408W)
# T1 construct: expressed in transfected cells
# T1 sequence (P00439 1-452 R408W): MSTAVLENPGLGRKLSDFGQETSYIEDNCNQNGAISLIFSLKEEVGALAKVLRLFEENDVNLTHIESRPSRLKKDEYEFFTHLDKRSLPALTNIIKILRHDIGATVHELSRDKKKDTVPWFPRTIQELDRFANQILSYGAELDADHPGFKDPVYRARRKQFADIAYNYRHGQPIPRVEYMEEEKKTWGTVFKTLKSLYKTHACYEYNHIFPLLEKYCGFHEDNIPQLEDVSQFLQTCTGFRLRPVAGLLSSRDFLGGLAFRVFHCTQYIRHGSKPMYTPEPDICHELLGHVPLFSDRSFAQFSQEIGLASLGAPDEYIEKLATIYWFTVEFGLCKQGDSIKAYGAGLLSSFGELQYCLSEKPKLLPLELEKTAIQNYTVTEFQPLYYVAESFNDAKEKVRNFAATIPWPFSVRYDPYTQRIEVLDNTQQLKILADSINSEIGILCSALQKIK
# Assay: Cell Based Phenylalanine Flux Assay
# Details: A375 cells expressing human R408W PAH; 24 hrs compound incubation; 13C-Tyrosine by LC-MS; average where tested multiple times; read-out: AC50
row,Compound,AC50
1,"O=C(CCc1nccs1)N1CCc2[nH]cnc2[C@@H]1c1ncc(-c2ccccc2)s1 [Example 2142, (R)-1-(4-(5-phenylthiazol-2-yl)-6,7-dihydro-1H-imidazo[4,5-c]pyridin-5(4H)-yl)-3-(thiazol-2-yl)propan-1-one]",> 5 µM
2,"O=C(c1ncn2ccccc12)N1CCc2[nH]cnc2[C@H]1c1nc2cc(F)ccc2s1 [Example 1105, (S)-(4-(5-fluorobenzo[d]thiazol-2-yl)-6,7-dihydro-1H-imidazo[4,5-c]pyridin-5(4H)-yl)(imidazo[1,5-a]pyridin-1-yl)methanone]",0.5 to 1 µM
3,O=C(c1oc(/C=C/C2CC2)nc1C(F)(F)F)N1CCc2[nH]cnc2[C@H]1c1nc2ccccc2s1 [Example 1567],0.5 to 1 µM
4,"COCc1ncc(C(=O)N2CCc3[nH]cnc3[C@@H]2c2nc3c(F)cccc3s2)s1 [Example 1704, (R)-(4-(4-fluorobenzo[d]thiazol-2-yl)-6,7-dihydro-1H-imidazo[4,5-c]pyridin-5(4H)-yl)(2-(methoxymethyl)thiazol-5-yl)methanone]",1 to 5 µM
5,"COCc1ncc(C(=O)N2CCc3[nH]cnc3[C@H]2c2nc3c(F)cccc3s2)s1 [Example 1703, (S)-(4-(4-fluorobenzo[d]thiazol-2-yl)-6,7-dihydro-1H-imidazo[4,5-c]pyridin-5(4H)-yl)(2-(methoxymethyl)thiazol-5-yl)methanone]",0.5 to 1 µM
6,"O=C(c1cc2cccnn2c1)N1CCc2[nH]cnc2[C@@H]1c1nc2ccccc2s1 [Example 1128, (R)-(4-(benzo[d]thiazol-2-yl)-6,7-dihydro-1H-imidazo[4,5-c]pyridin-5(4H)-yl)(pyrrolo[1,2-b]pyridazin-6-yl)methanone]",> 5 µM
7,"CC(C)(O)c1nc(C(F)(F)F)c(C(=O)N2CCc3[nH]cnc3[C@@H]2c2nc3c(F)cccc3s2)o1 [Example 1542, (R)-(4-(4-fluorobenzo[d]thiazol-2-yl)-6,7-dihydro-1H-imidazo[4,5-c]pyridin-5(4H)-yl)(2-(2-hydroxypropan-2-yl)-4-(trifluoromethyl)oxazol-5-yl)methanone]",< 0.5 µM
8,CC(C)(O)c1c(Br)ccc2c(C(=O)N3CCc4[nH]cnc4[C@H]3c3nc4ccccc4s3)cnn12 [Example 1475],< 0.5 µM
9,"O=C(c1cnn2cc(-c3ccccc3)ccc12)N1CCc2[nH]cnc2[C@@H]1c1nc2ccccc2s1 [Example 1210, (R)-(4-(benzo[d]thiazol-2-yl)-6,7-dihydro-1H-imidazo[4,5-c]pyridin-5(4H)-yl)(6-phenylpyrazolo[1,5-a]pyridin-3-yl)methanone]",> 5 µM
10,"CC(C)(O)c1nc(Cl)c(C(=O)N2CCc3[nH]cnc3[C@H]2c2nc3c(F)cccc3s2)o1 [Example 1935, (S)-(4-chloro-2-(2-hydroxypropan-2-yl)oxazol-5-yl)(4-(4-fluorobenzo[d]thiazol-2-yl)-6,7-dihydro-1H-imidazo[4,5-c]pyridin-5(4H)-yl)methanone]",< 0.5 µM
11,"CC(O)(c1nc(C(F)(F)F)c(C(=O)N2CCc3[nH]cnc3[C@@H]2c2nc3ccccc3s2)o1)C1CC1 (single isomer, unassigned) [Example 1564]",< 0.5 µM
12,"O=C(c1cnn2ccc(F)cc12)N1CCc2[nH]cnc2[C@@H]1c1nc2ccccc2s1 [Example 1104, (R)-(4-(benzo[d]thiazol-2-yl)-6,7-dihydro-1H-imidazo[4,5-c]pyridin-5(4H)-yl)(5-fluoropyrazolo[1,5-a]pyridin-3-yl)methanone]",1 to 5 µM
13,"Cc1ocnc1CC(=O)N1CCc2[nH]cnc2[C@@H]1c1nc2ccccc2s1 [Example 1532, (R)-1-(4-(benzo[d]thiazol-2-yl)-6,7-dihydro-1H-imidazo[4,5-c]pyridin-5(4H)-yl)-2-(5-methyloxazol-4-yl)ethanone]",> 5 µM
14,"O=C(CCc1nccs1)N1CCc2[nH]cnc2[C@@H]1c1nc2ccc(Br)cc2s1 [Example 1082, (R)-1-(4-(6-bromobenzo[d]thiazol-2-yl)-6,7-dihydro-1H-imidazo[4,5-c]pyridin-5(4H)-yl)-3-(thiazol-2-yl)propan-1-one]",> 5 µM
15,O=C(c1cnco1)N1CCc2[nH]cnc2[C@@H]1c1nc2c(F)cccc2s1 [Example 2162],1 to 5 µM
16,"O=C(c1ncc(Cl)s1)N1CCc2[nH]cnc2[C@H]1c1nc2ccccc2[nH]1 [Example 921, (S)-(4-(1H-benzo[d]imidazol-2-yl)-6,7-dihydro-1H-imidazo[4,5-c]pyridin-5(4H)-yl)(5-chlorothiazol-2-yl)methanone]",0.5 to 1 µM
17,"Cc1nc(C(C)(C)O)oc1C(=O)N1CCc2[nH]cnc2[C@@H]1c1nc2c(C(F)(F)F)cccc2s1 [Example 2116, (R)-(2-(2-hydroxypropan-2-yl)-4-methyloxazol-5-yl)(4-(4-(trifluoromethyl)benzo[d]thiazol-2-yl)-6,7-dihydro-1H-imidazo[4,5-c]pyridin-5(4H)-yl)methanone]",1 to 5 µM
18,O=C(c1cnn2ccc(Br)cc12)N1CCc2[nH]cnc2[C@H]1c1nc2ccc(F)cc2s1 [Example 1137],0.5 to 1 µM
19,"O=C(c1cnn2ccccc12)N1CCc2nc[nH]c2[C@H]1c1nc2c(F)cccc2s1 [Example 1111, (S)-(4-(4-fluorobenzo[d]thiazol-2-yl)-6,7-dihydro-3H-imidazo[4,5-c]pyridin-5(4H)-yl)(pyrazolo[1,5-a]pyridin-3-yl)methanone]",0.5 to 1 µM
20,O=C(c1cnc(-c2ncccc2F)s1)N1CCc2[nH]cnc2[C@H]1c1nc2ccccc2s1 [Example 1373],< 0.5 µM
21,"O=C(c1nnc(-c2ccc(F)cn2)o1)N1CCc2[nH]cnc2[C@@H]1c1nc2ccccc2s1 [Example 1366, (R)-(4-(benzo[d]thiazol-2-yl)-6,7-dihydro-1H-imidazo[4,5-c]pyridin-5(4H)-yl)(5-(5-fluoropyridin-2-yl)-1,3,4-oxadiazol-2-yl)methanone]",1 to 5 µM
22,"C[C@H]1CN(C(=O)c2nnc(-c3cnn(C)c3)o2)[C@@H](c2nc3ccccc3s2)c2nc[nH]c21 [Example 1751, ((4R,7S)-4-(benzo[d]thiazol-2-yl)-7-methyl-6,7-dihydro-1H-imidazo[4,5-c]pyridin-5(4H)-yl)(5-(1-methyl-1H-pyrazol-4-yl)-1,3,4-oxadiazol-2-yl)methanone]",> 5 µM
23,O=C(c1nnc(-c2ccc(F)c(F)c2)o1)N1CCc2[nH]cnc2[C@H]1c1nc2ccccc2s1 [Example 1801],< 0.5 µM
24,O=C(c1cnn(-c2ccc(F)cc2)c1)N1CCc2[nH]cnc2[C@H]1c1nc2ccccc2s1 [Example 1411],< 0.5 µM
25,"O=C(c1cnn(C2CC2)c1C(F)F)N1CCc2[nH]cnc2[C@H]1c1nc2c(F)cccc2s1 [Example 1999, (S)-(1-cyclopropyl-5-(difluoromethyl)-1H-pyrazol-4-yl)(4-(4-fluorobenzo[d]thiazol-2-yl)-6,7-dihydro-1H-imidazo[4,5-c]pyridin-5(4H)-yl)methanone]",0.5 to 1 µM
26,"Cc1nc(C(C)(C)F)oc1C(=O)N1CCc2[nH]cnc2[C@@H]1c1nc2ccccc2s1 [Example 1498, (R)-(4-(benzo[d]thiazol-2-yl)-6,7-dihydro-1H-imidazo[4,5-c]pyridin-5(4H)-yl)(2-(2-fluoropropan-2-yl)-4-methyloxazol-5-yl)methanone]",1 to 5 µM
27,"O=C(c1oc(-c2ccccn2)nc1C1CC1)N1CCc2[nH]cnc2[C@@H]1c1nc2c(F)cccc2s1 [Example 1536, (R)-(4-cyclopropyl-2-(pyridin-2-yl)oxazol-5-yl)(4-(4-fluorobenzo[d]thiazol-2-yl)-6,7-dihydro-1H-imidazo[4,5-c]pyridin-5(4H)-yl)methanone]",1 to 5 µM
28,"N#Cc1ccn2ncc(C(=O)N3CCc4[nH]cnc4[C@@H]3c3nc4c(F)cccc4s3)c2c1 [Example 1250, (R)-3-(4-(4-fluorobenzo[d]thiazol-2-yl)-4,5,6,7-tetrahydro-1H-imidazo[4,5-c]pyridine-5-carbonyl)pyrazolo[1,5-a]pyridine-5-carbonitrile]",1 to 5 µM
29,Cc1nn(C)cc1-c1nnc(C(=O)N2CCc3[nH]cnc3[C@H]2c2nc3ccccc3s2)o1 [Example 1925],< 0.5 µM
30,O=C(c1cnc(-c2ccccn2)o1)N1CCc2[nH]cnc2[C@H]1c1nc2ccccc2s1 [Example 1317],< 0.5 µM

# Same assay, conditions: A375 cells expressing human R408W PAH; 24 hrs with compound; 13C-Tyrosine by LC-MS; average where tested multiple times; read-out: AC50
row,Compound,AC50
1,Cn1ncc(C(=O)N2CCc3[nH]cnc3C2c2nc3c(C(F)(F)F)cccc3s2)c1C(F)F (centres unmarked),1 to 5 µM
2,"Cc1nc(C(C)(C)S(C)(=O)=O)oc1C(=O)N1CCc2[nH]cnc2[C@@H]1c1nc2c(F)cccc2s1 (single isomer, unassigned)",> 5 µM
3,Cc1nc(CN2CCOCC2)oc1C(=O)N1CCCc2[nH]cnc2C1c1nc2ccccc2s1 (centres unmarked),> 5 µM
4,O=C(c1cn[nH]c1)N1CCc2nc[nH]c2C1c1nc2c(F)cccc2s1 (centres unmarked),> 5 µM
5,O=C(CCc1nccs1)N1CCc2nc[nH]c2C1c1nc2c(Cl)cccc2s1 (centres unmarked),1 to 5 µM
6,O=C(c1cnco1)N1CC2(CC2)c2[nH]cnc2C1c1nc2c(F)cccc2s1 (centres unmarked),1 to 5 µM
7,"O=C(Cc1nccs1)N1CCc2[nH]cnc2[C@@H]1c1nc2ccc(Br)cc2[nH]1 (single isomer, unassigned)",> 5 µM
8,O=C(c1ccno1)N1CCc2[nH]cnc2C1c1nc2ccc(F)cc2s1 (centres unmarked),> 5 µM
9,"O=C(c1cocn1)N1CCc2[nH]cnc2[C@H]1c1nc2ccccc2[nH]1 [(S)-(4-(1H-benzo[d]imidazol-2-yl)-6,7-dihydro-1H-imidazo[4,5-c]pyridin-5(4H)-yl)(oxazol-4-yl)methanone]",1 to 5 µM
10,CC(C)(O)Cn1ncc(C(=O)N2CCc3[nH]cnc3C2c2nc3c(F)cccc3s2)c1Cl (centres unmarked),> 5 µM
11,Cc1nnc(CCC(=O)N2CCc3[nH]cnc3C2c2nc3ccccc3s2)o1 (centres unmarked),1 to 5 µM
